Results taken from patent US5498632A, “Esters of acyl carnitines with long-chain aliphatic alcohols and pharmaceutical compositions containing same having antibacterial activity” (Sigma-Tau Industrie Farmaceutiche Riunite S.p.A., priority 1992, dated 1996).

Assays:
[1] = system: lymphoid organs (spleen and thymus), splenocytes; assay: Test 3: body, spleen and thymus weight and splenocyte concentration; assay type: in vivo, mouse (male B6 D2 F1); details: 100 mg/kg/day for 5 consecutive days, oral
Protocol: Evaluation of the effect of repeated oral administrations of ST 722 on the body, spleen and thymus weight, and on the splenocyte concentration in mice.
Male B6 D2 F1 mice (C. River) aged 10 weeks (5 animals each group) were orally treated with the substance ST 722 at the dose of 100 mg/kg/day for 5 consecutive days. Twenty-four hours after the last administration, the animals were sacrificed, the organs removed and weighed, and the splenocyte number determined.

[2] = system: Gram- bacterial strains; assay: Mean MIC in broth and resistant strain number, Gram- strains; assay type: cell-based; details: 18 h; Gram- strains; versus susceptible strains; read-out: Mean MIC values
Method in brief: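 MIC read after 18 h incubation at 37 °C in humidified air. Test used two-fold serial dilutions in Mueller-Hinton broth, bacteria at final 5.0×10^4 CFU/ml from a 0.5 McFarland-matched overnight culture.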

[3] = system: Staphylococcus aureus (303); assay: MIC in broth, Gram+ strains; assay type: cell-based; details: S. aureus (303), Mueller-Hinton broth, 37° C., 18 hours, read-out: Minimal Inhibitory Concentration (MIC)
Method in brief: (§1)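 Mueller-Hinton broth microdilution, 2-fold serial dilutions; final inoculum 5.0×10^4 CFU/ml; 37° C, 18 h, humidified.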

[4] = system: Streptococcus faecalis (509); assay: MIC in broth, Gram+ strains; assay type: cell-based; details: Enterococcus faecalis; S. faecalis (509), Mueller-Hinton broth, 37° C., 18 hours; read-out: Minimal Inhibitory Concentration (MIC)
Method in brief: as §1

[5] = system: HEp-2 cells; assay: HEp-2 cell viability (Propidium Iodine cytofluorimetry); assay type: cell-based, human
Protocol: The investigation aimed at evaluating the difference in susceptibility to ST 722 of planktonic and sessile Helicobacter cells, using in the latter case an "in vitro" experimental model, which closely resembled the clinical condition occurring "in vivo" in type-B gastritis. […] Additionally, the viability of HEp-2 cells (either infected or not) was evaluated following "in vitro" ST 722 treatment. The degree of cytotoxicity was assessed by cytofiuorimetric analysis of Propidium Iodine-stained HEp-2 cells. […]
The antibacterial and cytotoxic activity of ST 722 against Helicobacter and HEp-2 cells, respectively, was evaluated by using 3 different ST 722 concentrations, namely 0.1, 1.56 (i.e. the MIC value vs. H. pylori NCTC 11637) and 4 mcg/ml. […]
Three and twenty-four hours following ST 722 addition, the cells were trypsinized and harvested by centrifugation at 800 g, The cell pellets were then resuspended in 500 μl PBS and additioned with 6 μl of a 1 mcg/ml Propidium Iodine stock solution in PBS, The same procedure was followed for the control, i.e. HEp-2 cells not infected with H. pylori. The cell suspensions were finally analyzed by means of a FACScan cytofluorimeter.

[6] = system: H. pylori planktonic cells (NCTC 11637); assay: Bactericidal effect against H. pylori planktonic cells; assay type: cell-based, Helicobacter pylori
Description: The investigation aimed at evaluating the difference in susceptibility to ST 722 of planktonic and sessile Helicobacter cells, using in the latter case an "in vitro" experimental model, which closely resembled the clinical condition occurring "in vivo" in type-B gastritis. We used HEp-2 cells, an epithelial cell line which harbors the same membrane glycolipid receptors for H. pylori as those harbored by the mucous cells of the antral gastric mucosa (MEGRAUD, F., TRIMOULET, P., LAMOULIATTE, H. and BOYANOVA, L., 1991. Bacterial effect of Amoxicillin on "H. pylori" in an in vitro model using epithelial cells. Antimicrob. Agents Chemoter. 35 (5): 869-872 and LINGWOOD, C. A., LAW, H. and PELLIZANI, A., 1989. Gastric glycerolipid as a receptor for Campylobacter pylori. Lancet i: 238-241). Additionally, the viability of HEp-2 cells (either infected or not) was evaluated following "in vitro" ST 722 treatment. The degree of cytotoxicity was assessed by cytofiuorimetric analysis of Propidium Iodine-stained HEp-2 cells.
Helicobacter pylori NCTC 11637.
The antibacterial and cytotoxic activity of ST 722 against Helicobacter and HEp-2 cells, respectively, was evaluated by using 3 different ST 722 concentrations, namely 0.1, 1.56 (i.e. the MIC value vs. H. pylori NCTC 11637) and 4 mcg/ml.
After making geometric dilutions of the suspensions (0.1 ml of each dilution inoculated onto each plate in triplicate), the plates were incubated for 7 days in a microaerobic atmosphere, and the plates with 30 to 200 CFU were counted.
The ST 722 activity against Helicobacter planktonic cells was determined in the same experimental conditions in the absence of HEp-2 cells. Finally, the results are expressed as CFU per flask of each sample with respect to the relevant control (i.e. sessile or planktonic cultures).

CCCCCCCCCCCOC(=O)CC(C[N+](C)(C)C)OC(=O)CC(C)C [ST 722, Isovaleryl-L-Carnitine Undecyl Ester Chloride]
Body weight [1]: 26.50 ± 0.53 g
Spleen weight [1]: 73.25 ± 3.84 mg
Thymus weight [1]: 38.80 ± 3.01 mg
specific immunotoxic effects on the considered parameters [1]: lack of specific immunotoxic effects
MIC [2]: 35.7 µg/mL
MIC [3]: 6.25 µg/mL
MIC [4]: 3.12 µg/mL
cytotoxicity versus HEp-2 cells ([5]; 4 mcg/ml (data not shown)): unable to induce detectable cytotoxicity
cytotoxicity versus HEp-2 cells ([5]; Propidium Iodine staining): devoid of any cytotoxicity
Planktonic cells (CFU per flask) ([6]; 3-h contact, 0.1 mcg/ml): 9.50 × 10^5 CFU per flask
Planktonic cells (CFU per flask) ([6]; 3-h contact, 1.56 mcg/ml): 3.50 × 10^5 CFU per flask
Planktonic cells (CFU per flask) ([6]; 3-h contact, 4.0 mcg/ml): 1.00 × 10^5 CFU per flask
Planktonic cells (CFU per flask) ([6]; 24-h contact, 0.1 mcg/ml): 9.00 × 10^7 CFU per flask
Planktonic cells (CFU per flask) ([6]; 24-h contact, 1.56 mcg/ml): 4.05 × 10^6 CFU per flask
Planktonic cells (CFU per flask) ([6]; 24-h contact, 4.0 mcg/ml, control 5.35 × 10^8): 1.85×10^6 CFU per flask
complete medium sterilization ([6]; planktonic cells): a complete medium sterilization was not attained
